Results taken from ChEMBL document CHEMBL1649100, “N-3 Hydroxylation of Pyrimidine-2,4-diones Yields Dual Inhibitors of HIV Reverse Transcriptase and Integrase” (ACS Med Chem Lett, 2011).

Key:
[1] = Inhibition of HIV integrase strand transfer activity expressed in Escherichia coli; set-up: species or system Human immunodeficiency virus
[2] = Inhibition of HIV integrase 3' processing activity expressed in Escherichia coli; set-up: species or system Human immunodeficiency virus
[3] = molecular target: Human immunodeficiency virus type 1 reverse transcriptase (Human immunodeficiency virus 1, UniProt Q72547); assay: Inhibition of HIV1 reverse transcriptase
[4] = tested on: Human immunodeficiency virus 1; assay: Antiviral activity against HIV1 3B infected in human CEM-SS cells assessed as inhibition of viral replication after 6 days by MTS assay; format: functional, organism-based; conditions: Human immunodeficiency virus 1, 3B, 144 h
[5] = Cytotoxicity in human CEM-SS cells after 6 days by MTS assay; format: cell-based
[6] = Therapeutic index, ratio of CC50 for human CEM-SS cells to EC50 for HIV1 3B; format: cell-based; conditions: read-out: Ratio CC50/EC50

IC50 [1] [µM]	IC50 [2] [µM]	IC50 [3] [µM]	SMILES	EC50 [4] [nM]	CC50 at 144 h [5] [µM]	selectivity ratio [6]
5.5	> 333	> 100	CC(C)c1c(Cc2ccc(F)cc2)n(COCc2ccc(F)cc2)c(=O)n(O)c1=O	> 10000	–	–
21	> 333	6.2	CC(C)c1c(Cc2ccccc2)n(COCc2ccccc2)c(=O)n(O)c1=O	8	> 20	> 2500
7.3	> 333	> 100	CC(C)c1c(Cc2ccc(F)cc2)n(COCc2ccccc2)c(=O)n(O)c1=O	> 10000	–	–
3.5	> 333	0.17	CC(C)c1c(Cc2ccccc2)n(COCc2ccc(F)cc2)c(=O)n(O)c1=O	24	> 20	> 830
8.2	> 333	9.4	CCc1c(Cc2ccccc2)n(COCc2ccccc2)c(=O)n(O)c1=O	1100	> 20	> 18
> 333	> 333	1.5	CC(C)c1c(Cc2ccccc2)n(COCc2ccccc2)c(=O)n(N)c1=O	> 10000	–	–
85	> 333	13	CCOCn1c(Cc2ccccc2)c(C(C)C)c(=O)n(O)c1=O	4300	> 20	> 4.7
105	> 333	> 100	CCOCn1c(Cc2ccc(F)cc2)c(C(C)C)c(=O)n(O)c1=O	> 10000	–	–
> 333	> 333	0.04	CC(C)c1c(Cc2ccccc2)n(COCc2ccccc2)c(=O)[nH]c1=O	13	> 20	> 1500
